From patent US7622611B2, “Pentafluorosulfanylbenzoylguanidines, process for their preparation, use as a medicament or diagnostic aid, and medicament comprising same” (Sanofi-Aventis Deutschland GmbH, priority 2003, dated 2009)

Key:
[1] = In vivo pharmacokinetics, profiling with the "n in one method" in beagle dog; details: for Volume of distribution: fasting male beagle dog, single i.v. bolus into jugular vein, about 1 mg/kg, both substances given together
Procedure: In vivo pharmacokinetics—profiling with the “n in one method”
The exposure data and the volumes of distribution were determined as characteristic pharmacokinetic data as follows:
The NHE-1 inhibitor of example 1 of the invention and, as reference substance, the known NHE-1 inhibitor cariporide with formula
[drawing 23] were dissolved in an aqueous, slightly acidic medium (water, pH 4, adjusted with 1M hydrochloric acid). The concentration of the aqueous formulation prepared in this way was about 1.5 mg of each substance per 1 g of solution. 10 ml of this formulation were administered as a single bolus by catheter into the jugular vein of a fasting male beagle dog (dose about 1 mg of each substance administered per kg of the dog's body weight). Blood samples were taken by means of a second catheter after 5 min, 15 min, 30 min, 1 h, 2 h, 4 h, 8 h and 24 h, and heparinized plasma was prepared by centrifugation at 1000 G in appropriate plasma tubes.
The plasma samples were worked up and, after an HPLC separation, quantified by MS/MS. The high specificity of this method permitted simultaneous determination of a plurality of substances. The exposures could be calculated using the WinNonlin computer program from the concentration-time plots (see FIG. 1) and compared with the exposure of the known NHE-1 reference substance. Since the various substances were measured in the same animal at the same time, the result was an accurate comparison of the compounds, and a ranking of the volumes of distribution was possible.
FIG. 1: concentration-time plots in the blood plasma of dogs after administration of in each case approx. 1 mg/kg of the compound of example 1 and of cariporide.

human NHE-1 = biological target: T1, human NHE-1 (Homo sapiens, UniProt P19634); experiment: NHE-1 inhibition, FLIPR assay measuring pHi recovery in transfected cell lines; type: cell-based; details: transfected LAP-1 cell line expressing human NHE-1, BCECF pHi recovery, read-out: NHE1 inhibition IC50
T1 construct: expressed in transfected cells; host or cells: LAP-1 (parental line without endogenous NHE activity), G418 selection
Procedure: The inhibitory concentration IC50 for NHE-1 inhibition was determined as follows:
IC50 for NHE-1 inhibition was determined in an FLIPR assay by measurement of the pHi recovery in transfected cell lines which express human NHE-1.
The assay was carried out in an FLIPR (fluorometric imaging plate reader) with black-walled 96-well microtiter plates with clear bases.
The growth medium for the transfected cells (Iscove+10% fetal calf serum) additionally contained G418 as selection antibiotic in order to ensure the presence of the transfected sequences.
The actual assay started with the removal of the growth medium and addition of 100 μl of loading buffer per well (5 μM BCECF-AM [2′,7′-bis(carboxyethyl)-5-(and -6-)carboxyfluorescein, acetoxymethyl ester] in 20 mM NH4Cl, 115 mM choline chloride, 1 mM MgCl2, 1 mM CaCl2, 5 mM KCl, 20 mM HEPES, 5 mM glucose; pH 7.4 [adjusted with KOH]). The cells were then incubated at 37° C. for 20 minutes. This incubation led to loading of the cells with the fluorescent dye whose fluorescence intensity depends on pHi, and with NH4Cl that made the cells slightly alkaline.
The nonfluorescent dye precursor BCECF-AM is, as ester, membrane-permeable. The actual dye BCECF is not membrane-permeable but is liberated inside cells by esterases. […]

T1 sequence (P19634 whole entry): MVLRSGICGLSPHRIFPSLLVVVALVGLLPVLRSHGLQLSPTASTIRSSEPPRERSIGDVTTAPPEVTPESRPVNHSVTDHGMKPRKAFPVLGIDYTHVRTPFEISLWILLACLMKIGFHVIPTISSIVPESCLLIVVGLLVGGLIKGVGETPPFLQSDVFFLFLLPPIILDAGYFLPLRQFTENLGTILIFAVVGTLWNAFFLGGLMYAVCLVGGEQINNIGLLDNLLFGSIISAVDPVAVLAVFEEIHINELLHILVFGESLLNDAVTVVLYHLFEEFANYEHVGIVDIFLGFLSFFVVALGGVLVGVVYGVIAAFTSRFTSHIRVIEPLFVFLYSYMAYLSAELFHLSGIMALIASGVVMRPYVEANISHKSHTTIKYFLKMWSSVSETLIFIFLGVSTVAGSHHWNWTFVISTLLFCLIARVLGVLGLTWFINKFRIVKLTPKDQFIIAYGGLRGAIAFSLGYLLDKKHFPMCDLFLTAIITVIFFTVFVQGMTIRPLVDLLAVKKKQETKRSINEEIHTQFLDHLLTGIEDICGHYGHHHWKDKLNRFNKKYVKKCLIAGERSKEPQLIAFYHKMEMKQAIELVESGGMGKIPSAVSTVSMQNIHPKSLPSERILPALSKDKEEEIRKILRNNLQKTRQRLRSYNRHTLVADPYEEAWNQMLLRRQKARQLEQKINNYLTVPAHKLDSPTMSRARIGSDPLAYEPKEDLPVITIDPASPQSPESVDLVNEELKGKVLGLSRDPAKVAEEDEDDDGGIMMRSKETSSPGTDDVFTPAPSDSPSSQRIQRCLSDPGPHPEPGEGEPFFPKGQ

## CC(C)c1ccc(C(=O)N=C(N)N)cc1S(C)(=O)=O.CS(=O)(=O)O [cariporide, reference compound]
[1]; dog plasma, 24 h after about 1 mg/kg i.v.
  Detectability in plasma after 24 hours: no longer detectable
[1]
  Volume of distribution: 2.94 l/kg of body weight

## Cc1cc(S(F)(F)(F)(F)F)c(S(C)(=O)=O)cc1C(=O)N=C(N)N [Example 1, N-(5-Methanesulfonyl-2-methyl-4-pentafluorosulfanylbenzoyl)guanidine]
Human NHE-1
  IC50: 49 nM
[1]; dog plasma, about 1 mg/kg i.v., from concentration-time plots, FIG. 1
  Exposure relative to reference substance cariporide (times higher): 2-3 times
[1]
  Volume of distribution: 1.67 l/kg of body weight
other
  melting point: 254 to 256 °C
